Measurements as given in patent publication US20010047099A1, “4-aminopicolinates and their use as herbicides” (priority 2000, published 2001).

Assays:
[1] = test system: velvetleaf (Abutilon theophrasti); test: Preemergence herbicidal activity; assay type: in vivo; details: Table 6 (headed Post-emergent; text: preemergence), after 3 weeks
Procedure, shortened: (§1)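 Test compounds, dissolved in acetone/DMSO and diluted with 0.1 percent Tween 155 in water, are applied evenly to the surface of seeded soil (loam/sand, pH about 8.1) before emergence. Plants grow in the greenhouse for 3 weeks before visual rating against untreated controls on a 0-100 percent scale.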

[2] = test system: morningglory (Ipomoea hederacea); test: Preemergence herbicidal activity; assay type: in vivo; details: Table 6 (headed Post-emergent; text: preemergence), after 3 weeks
Procedure, shortened: as §1

[3] = test system: pigweed (Amaranthus retroflexus); test: Preemergence herbicidal activity; assay type: in vivo; details: Table 6 (headed Post-emergent; text: preemergence), after 3 weeks
Procedure, shortened: as §1

[4] = test system: common ragweed (Ambrosia artemisiifolia); test: Range & Pasture Crop Testing (postemergence track sprayer); assay type: in vivo; details: Table 9; rate 70 g/Ha; 3 week evaluation
Protocol: (§2) Rates are calculated based upon 5 doses being applied. The high rate (X), followed by serial dilutions of 1/2×, 1/4×, 1/8× and 1/16×. Compound requirements are based upon the 187 L/ha carrier volume, specifications of the delivery system (Mandel track sprayer) and generating 24 mL of technical spray material to allow for the dilutions and overage in the sprayer. [formula]
(§3) All technical materials were formulated in 97:3 (acetone:DMSO) with 0.25% X-77. The total volume of solvent is maintained at less than 7%. An overhead Mandel track sprayer calibrated to deliver 187 L/ha was used for all treatment applications (postemergence). Picloram was included as a comparison treatment.
(§4) Solutions were applied with a mechanized track-sprayer at the following settings:
(§5) Spray height: 17 inches above top of plants
(§6) This provides an application volume of 187 L/ha.
(§7) Percent weed control (burn down) was evaluated 3 weeks after treatment. Visual control on a 0-100 linear scale was used, with 0 representing no control and 100 representing total control. Burn down ratings were taken for annual and perennial weed species.

[5] = test system: crested wheatgrass (Agropyron cristatum) (grass crop); test: as above; assay type: in vivo; details: Table 9, rate 70 g/Ha, 3 weeks after treatment
Protocol: as §2, §3, §4, §5, §6, §7

[6] = test system: broadleaf dock (Rumex obtusifolia); test: as above; assay type: in vivo; details: Table 9; rate 70 g/Ha; 3 weeks after treatment
Protocol: as §2, §3, §4, §5, §6, §7

[7] = test system: chickweed (Stellaria media); test: Postemergence herbicidal activity; assay type: in vivo
Procedure, shortened: (§8)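 Plants are raised from seed under greenhouse conditions until the first or second true leaf appears. They are then sprayed with test solutions at known concentrations, where 1 ppm corresponds to roughly 1 g/Ha. Two weeks later, injury is rated by eye from 0 to 100%.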

[8] = test system: cocklebur (Xanthium strumarium); test: Postemergence herbicidal activity; assay type: in vivo
Procedure, shortened: as §8

[9] = test system: wild buckwheat (Polygonum convolvulus); test: Postemergence herbicidal activity; assay type: in vivo
Procedure, shortened: as §8

[10] = test system: Canada thistle (Cirsium arvense); test: Range & Pasture Crop Testing (postemergence track sprayer); assay type: in vivo; details: for Post-emergent Evaluation - % control CIRAR: Table 9, rate 70 g/Ha, 3 weeks after treatment
Protocol: (§9) By applying the well-accepted probit analysis as described by J. Berkson in Journal of the […], 48, 565 (1953) and by D. Finney in “Probit Analysis” Cambridge University Press (1952), the above data can be used to calculate GR50 and GR80 values, which are defined as growth reduction factors that correspond to the effective dose of herbicide required to kill or control 50 percent or 80 percent, respectively, of a target plant.
as §2, §3, §4, §5, §6, §7

[11] = test system: White Clover (Trifolium repens); test: as above; assay type: in vivo; details: Table 10
Protocol: as §9, §2, §3, §4, §5, §6, §7

[12] = test system: field bindweed (Convolvulus arvensis); test: as above; assay type: in vivo
Protocol: as §9, §2, §3, §4, §5, §6, §7

[13] = test system: wheat (Triticum aestivum); test: Postemergence herbicidal activity, selectivity to wheat; assay type: in vivo; details: Table 5; crop (wheat); rate 125 ppm
Protocol: (§10) Seeds of the desired test plant species were planted in Grace-Sierra MetroMix® 306 planting mixture, which typically has a pH of 6.0 to 6.8 and an organic matter content of about 30 percent, in plastic pots with a surface area of 64 square centimeters. When required to ensure good germination and healthy plants, a fungicide treatment and/or other chemical or physical treatment was applied. The plants were grown for 7-21 days in a greenhouse with an approximate 15 hr photoperiod which was maintained at about 23-29° C. during the day and 22-28° C. during the night. Nutrients and water were added on a regular basis and supplemental lighting was provided with overhead metal halide 1000-Watt lamps as necessary. The plants were employed for testing when they reached the first or second true leaf stage.
(§11) A weighed amount, determined by the highest rate to be tested, of each test compound was placed in a 20 mL glass vial and was dissolved in 4 mL of a 97:3 v/v (volume/volume) mixture of acetone and dimethyl sulfoxide (DMSO) to obtain concentrated stock solutions. […] The concentrated stock solutions obtained were diluted with an aqueous mixture containing acetone, water, isopropyl alcohol, DMSO, Atplus 411F crop oil concentrate, and Triton X-155 surfactant in a 48.5:39:10:1.5:1.0:0.02 v/v ratio to obtain spray solutions of known concentration. The solutions containing the highest concentration to be tested were prepared by diluting 2 mL aliquots of the stock solution with 13 mL of the mixture and lower concentrations were prepared by serial dilution of the stock solution. Approximately 1.5 mL aliquots of each solution of known concentration were sprayed evenly onto each of the test plant pots using a DeVilbiss atomizer driven by compressed air pressure of 2 to 4 psi (140 to 280 kilopascals) to obtain thorough coverage of each plant. Control plants were sprayed in the same manner with the aqueous mixture. In this test an application rate of 1 ppm results in the application of approximately 1 g/Ha.
(§12) The treated plants and control plants were placed in a greenhouse as described above and watered by sub-irrigation to prevent wash-off of the test compounds. After 2 weeks the condition of the test plants as compared with that of the untreated plants was determined visually and scored on a scale of 0 to 100 percent where 0 corresponds to no injury and 100 corresponds to complete kill.

[14] = test system: lambsquarters (Chenopodium album); test: Postemergence herbicidal activity; assay type: in vivo; details: Table 5; rate 125 ppm
Procedure, shortened: as §8

corn (Zea mays) = test: Postemergence herbicidal activity, selectivity to corn; assay type: in vivo; details: Table 4; crop (corn); rate 125 ppm
Protocol: as §10
as §11, with “Approximately 1.5 mL aliquots of each solution of known concentration were sprayed evenly onto each of the test plant pots using a DeVilbiss atomizer driven by compressed air pressure of 2 to 4 psi (140 to 280 kilopascals) to obtain thorough coverage of each plant. Control plants were sprayed in the same manner with the aqueous mixture. In this test an application rate of 1 ppm results in the application of approximately 1 g/Ha.” left out
as §12

[15] = test system: velvetleaf (Abutillon theophrasti); test: Postemergence herbicidal activity; assay type: in vivo; details: Table 4; rate 125 ppm
Procedure, shortened: as §8

[16] = test system: pigweed (Amaranthus retroflexus); test: Postemergence herbicidal activity; assay type: in vivo; details: Table 4; rate 125 ppm
Procedure, shortened: as §8

[17] = test system: sicklepod (Cassia obtusifolia); test: Range & Pasture Crop Testing (postemergence track sprayer); assay type: in vivo; details: Table 8; salts of Compound 1; dose for 80 percent control
Protocol: as §9, §2, §3, §4, §5, §6, §7

[18] = Table 10, clover pasture, postemergence
[19] = Table 1, rate 125 ppm, visual, after 2 weeks

CC(C)OC(=O)c1nc(Cl)cc(N)c1Cl [Compound 6, i-propyl 4-amino-3,6-dichloropyridine-2-carboxylate]
melting point: 114 to 115 °C
pest or weed control at 280 ppm ([1]; Abutilon theophrasti, 504 h, rate 280 ppm, read-out: % Control ABUTH): 100%
pest or weed control at 280 ppm ([2]; Ipomoea, 504 h, rate 280 ppm, read-out: % Control IPOHE): 100%
pest or weed control at 280 ppm ([3]; Amaranthus retroflexus, 504 h, rate 280 ppm, read-out: % Control AMARE): 100%
Post-emergent Evaluation - % control AMBEL [4]: 93%
Post-emergent Evaluation - % control AGRCR [5]: 30%
Post-emergent Evaluation - % control RUMOB [6]: 100%
pest or weed control at 125 ppm ([7]; Stellaria media, post-emergence, 336 h, Table 1, rate 125 ppm, visual, after 2 weeks, read-out: Post-emergent % Control STEME): 100%
pest or weed control at 125 ppm ([8]; Xanthium strumarium, post-emergence, 336 h, Table 1, rate 125 ppm, visual, after 2 weeks, read-out: Post-emergent % Control XANST): 100%
pest or weed control at 125 ppm ([9]; Fallopia convolvulus, post-emergence, 336 h, Table 1, rate 125 ppm, visual, after 2 weeks, read-out: Post-emergent % Control POLCO): 100%
Post-emergent Evaluation - % control CIRAR [10]: 95%
GR80 CIRAR [10, 18]: <17.5 g/ha
GR20 TRFRE [11]: 98.8 g/ha
GR80 CONAR [12, 18]: 98.8 g/ha

4-Amino-3,6-dichloro-5-methylthiopyridine-2-carboxylic acid [Compound 23]
% Control ABUTH ([1]; rate 560 ppm): 40%
% Control IPOHE ([2]; rate 560 ppm): 0%
% Control AMARE ([3]; rate 560 ppm): 40%
Post-emergent Evaluation - % control AMBEL [4]: 85%
Post-emergent Evaluation - % control AGRCR [5]: 30%
Post-emergent Evaluation - % control RUMOB [6]: 100%
Post-emergent Evaluation - % control TRZAS [13]: 20%
Post-emergent % Control STEME [7, 19]: 90%
Post-emergent Evaluation - % control STEME ([7]; Table 5, rate 125 ppm): 30%
Post-emergent Evaluation - % control CHEAL [14]: 90%
Post-emergent % Control XANST [8, 19]: 90%
Post-emergent % Control POLCO [9, 19]: 98%
Post-emergent Evaluation - % control POLCO ([9]; Table 5, rate 125 ppm): 98%
Post-emergent Evaluation - % control CIRAR [10]: 80%

CN(C)c1cc(Cl)nc(C(=O)O)c1Cl [Compound 33, 4-N,N-dimethylamino-3,6-dichloropyridine-2-carboxylic acid]
Post-emergent Evaluation - % control ZEAMX (corn (Zea mays)): 20%
melting point: 110 °C
pest or weed control at 560 ppm ([1]; Abutilon theophrasti, 504 h, rate 560 ppm, read-out: % Control ABUTH): 98%
pest or weed control at 560 ppm ([2]; Ipomoea, 504 h, rate 560 ppm, read-out: % Control IPOHE): 100%
pest or weed control at 560 ppm ([3]; Amaranthus retroflexus, 504 h, rate 560 ppm, read-out: % Control AMARE): 100%
pest or weed control at 250 ppm ([7]; Stellaria media, post-emergence, 336 h, Table 1, rate 250 ppm, visual, after 2 weeks, read-out: Post-emergent % Control STEME): 100%
Post-emergent Evaluation - % control ABUTH [15]: 80%
Post-emergent Evaluation - % control AMARE [16]: 50%
Post-emergent Evaluation - % control XANST ([8]; Table 4, rate 125 ppm): 100%
pest or weed control at 250 ppm ([8]; Xanthium strumarium, post-emergence, 336 h, Table 1, rate 250 ppm, visual, after 2 weeks, read-out: Post-emergent % Control XANST): 100%
pest or weed control at 250 ppm ([9]; Fallopia convolvulus, post-emergence, 336 h, Table 1, rate 250 ppm, visual, after 2 weeks, read-out: Post-emergent % Control POLCO): 100%

Nc1cc(Cl)nc(C(=O)[O-])c1Cl.[K+] [potassium salt]
Post-emergent GR80 CIRAR ([10]; Table 8, salts of Compound 1, 3 week evaluation): 27 g/Ha
Post-emergent GR80 CASOB [17]: <8.8 g/Ha
Post-emergent GR80 CONAR ([12]; Table 8, salts of Compound 1, dose for 80 percent control): 36 g/Ha
